# Laboratory results as given in patent publication US20240150377A1, “MODULATORS OF CYSTIC FIBROSIS TRANSMEMBRANE CONDUCTANCE REGULATOR” (VERTEX PHARMACEUTICALS INCORPORATED, priority 2020, published 2024).
# Where two headings read alike, the source gives them in different places.
# Molecular target: CFTR (Homo sapiens, UniProt P13569)
# Assay: Membrane potential dye, Enteroid Assay B
# Assay type: cell-based
# Details: for EC50: read-out: Ent. B EC50; for Ent. B Max Activity: chloride transport as % of triple combination control (Enteroid Assay B)
# Method: Base medium (ADF+++) consisted of Advanced DMEM/Ham's F12, 2 mM Glutamax, 10 mM HEPES, […] penicillin/streptomycin.
# Intestinal enteroid maintenance medium (IEMM) consisted of ADF+++, 1× B27 supplement, 1× N2 supplement, 1.25 mM N-acetyl cysteine, 10 mM Nicotinamide, 50 ng/mL hEGF, 10 nM Gastrin, 1 μg/mL hR-spondin-1, 100 ng/mL hNoggin, TGF-b type 1 inhibitor A-83-01, 100 μg/mL Primocin, 10 μM P38 MAPK inhibitor SB202190.
# Bath 1 Buffer consisted of 1 mM MgCl2, 160 mM NaCl, 4.5 mM KCl, 10 mM HEPES, 10 mM Glucose, 2 mM CaCl2).
# Chloride Free Buffer consisted of 1 mM Magnesium Gluconate, 2 mM Calcium Gluconate, 4.5 mM Potassium Gluconate, 160 mM Sodium Gluconate, 10 mM HEPES, 10 mM Glucose.
# BathI Dye Solution consisted of Bath 1 Buffer, 0.04% Pluronic F127, 20 μM Methyl Oxonol, 30 μM CaCCinh-A01, 30 μM Chicago Sky Blue.
# Chloride Free Dye Solution consisted of Chloride Free Buffer, 0.04% Pluronic F127, 20 μM Methyl Oxonol, 30 μM CaCCinh-A01, 30 μM Chicago Sky Blue.
# Chloride Free Dye Stimulation Solution consisted of Chloride Free Dye Solution, 10 μM forskolin, 100 μM IBMX, and 300 nM Compound III.
# Human intestinal epithelial enteroid cells were obtained from the Hubrecht Institute for Developmental Biology and Stem Cell Research, Utrecht, The Netherlands and expanded in T-Flasks as previously described (Dekkers J F, Wiegerinck C L, de Jonge H R, Bronsveld I, Janssens H M, de Winter-de Groot K M, Brandsma A M, de Jong N W M, Bijvelds M J C, Scholte B J, Nieuwenhuis E E S, van den Brink S, Clevers H, van der Ent C K, Middendorp S and M Beekman J M. A functional CFTR assay using primary cystic fibrosis intestinal organoids. Nat Med. 2013 July;19(7):939-45.).
# 3. Enteroid Cell Harvesting and Seeding
# Cells were recovered in cell recovery solution, collected by centrifugation at 650 rpm for 5 min at 4° C., resuspended in TrypLE and incubated for 5 min at 37° C. Cells were then collected by centrifugation at 650 rpm for 5 min at 4° C. and resuspended in IEMM containing 10 μM ROCK inhibitor (RI). The cell suspension was passed through a 40 μm cell strainer and resuspended at 1×10^6 cells/mL in IEMM containing 10 μM RI. Cells were seeded at 5000 cells/well into multi-well plates and incubated for overnight at 37° C., 95% humidity and 5% CO2 prior to assay.
# 5. Membrane Potential Dye, Enteroid Assay B
# Enteroid cells were incubated with test compound in IEMM for 18-24 hours at 37° C., 95% humidity and 5% CO2. […] Briefly, cells were washed 5 times in Bath 1 Buffer. Bath 1 Dye Solution was added and the cells were incubated for 25 min at room temperature. Following dye incubation, cells were washed 3 times in Chloride Free Dye Solution. Chloride transport was initiated by addition of Chloride Free Dye Stimulation Solution and the fluorescence signal was read for 15 min. […] Chloride transport was then expressed as a percentage of the chloride transport following treatment with 1 μM (14S)-8-[3-(2-{Dispiro[2.0.2.1]heptan-7-yl}ethoxy)-1H-pyrazol-1-yl]-12,12-dimethyl-2λ^6-thia-3,9,11,18,23-pentaazatetracyclo[17.3.1.111,14.05,10]tetracosa-1(22),5,7,9,19(23),20-hexaene-2,2,4-trione, 3 μM (R)-1-(2,2-difluorobenzo[d][1,3]dioxol-5-yl)-N-(1-(2,3-dihydroxypropyl)-6-fluoro-2-(1-hydroxy-2-methylpropan-2-yl)-1H-indol-5-yl)cyclopropanecarboxamide and 300 nM acute N-[2,4-bis(1,1-dimethylethyl)-5-hydroxyphenyl]-1,4-dihydro-4-oxoquinoline-3-carboxamide triple combination control (% Activity).
# [1] = Table 8, human enteroid cells, 18-24 hours, acute 10 μM forskolin and 300 nM ivacaftor
# Chain of CFTR (P13569 with tags, fused parts or gaps DEL508-508): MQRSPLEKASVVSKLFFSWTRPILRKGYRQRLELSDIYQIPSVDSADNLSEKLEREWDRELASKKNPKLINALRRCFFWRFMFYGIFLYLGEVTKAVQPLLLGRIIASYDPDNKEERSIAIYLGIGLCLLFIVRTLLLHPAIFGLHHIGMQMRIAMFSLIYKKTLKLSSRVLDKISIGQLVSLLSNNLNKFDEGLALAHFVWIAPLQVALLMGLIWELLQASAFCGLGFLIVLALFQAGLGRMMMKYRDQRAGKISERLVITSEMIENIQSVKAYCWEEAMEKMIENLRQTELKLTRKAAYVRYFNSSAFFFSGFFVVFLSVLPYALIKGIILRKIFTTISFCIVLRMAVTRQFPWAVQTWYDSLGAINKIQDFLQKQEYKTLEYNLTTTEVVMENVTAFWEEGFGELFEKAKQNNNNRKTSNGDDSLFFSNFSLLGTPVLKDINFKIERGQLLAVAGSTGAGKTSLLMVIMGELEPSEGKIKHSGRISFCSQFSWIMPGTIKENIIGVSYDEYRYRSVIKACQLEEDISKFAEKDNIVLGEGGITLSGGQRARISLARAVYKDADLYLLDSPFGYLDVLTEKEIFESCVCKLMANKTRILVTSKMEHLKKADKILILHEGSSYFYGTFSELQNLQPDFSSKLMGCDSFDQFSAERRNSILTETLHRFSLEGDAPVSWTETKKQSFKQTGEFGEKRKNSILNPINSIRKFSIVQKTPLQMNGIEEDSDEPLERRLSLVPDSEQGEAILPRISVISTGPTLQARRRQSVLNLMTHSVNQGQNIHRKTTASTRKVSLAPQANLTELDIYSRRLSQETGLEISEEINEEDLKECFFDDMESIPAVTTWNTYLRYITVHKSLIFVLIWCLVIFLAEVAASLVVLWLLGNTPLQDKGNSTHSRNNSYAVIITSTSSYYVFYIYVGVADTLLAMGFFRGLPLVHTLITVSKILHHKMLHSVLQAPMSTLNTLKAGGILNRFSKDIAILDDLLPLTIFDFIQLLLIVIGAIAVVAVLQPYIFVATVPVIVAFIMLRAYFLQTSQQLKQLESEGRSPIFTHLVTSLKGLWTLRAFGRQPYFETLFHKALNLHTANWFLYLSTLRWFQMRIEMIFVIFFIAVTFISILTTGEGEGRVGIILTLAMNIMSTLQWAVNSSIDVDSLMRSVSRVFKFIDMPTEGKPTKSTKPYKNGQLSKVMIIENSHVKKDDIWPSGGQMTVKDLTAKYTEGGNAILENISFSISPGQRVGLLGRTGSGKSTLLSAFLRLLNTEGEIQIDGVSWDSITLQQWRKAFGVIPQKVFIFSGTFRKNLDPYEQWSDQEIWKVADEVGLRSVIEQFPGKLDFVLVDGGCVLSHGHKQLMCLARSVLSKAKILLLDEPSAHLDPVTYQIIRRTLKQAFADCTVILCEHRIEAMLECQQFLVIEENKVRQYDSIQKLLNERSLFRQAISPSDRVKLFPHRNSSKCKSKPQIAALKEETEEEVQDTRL
Compound,Ent. B Max Activity (%) (Table 9),EC50 (Table 9),Ent. B Max Activity (Table 8),EC50 [1]
"Cc1cccc(C)c1-c1cc2nc(n1)NS(=O)(=O)c1cccc(c1)C(=O)N(CCC1CCOCC1)[C@@H]1CN(C3CC4(CCCC4)C3)C[C@H]1O2 [Compound 1191, (3R,7R)-19-(2,6-Dimethylphenyl)-8-[2-(oxan-4-yl)ethyl]-5-{spiro[3.4]octan-2-yl}-2-oxa-15λ^6-thia-5,8,16,18,21-pentaazatetracyclo[15.3.1.110,14.03,7]docosa-1(20),10(22),11,13,17(21),18-hexaene-9,15,15-trione]",+++ (+++ is >600%),< 1000 nM,–,–
Cc1cccc(C)c1-c1cc2nc(n1)NS(=O)(=O)c1cccc(c1)C(=O)N(CCCC(C)(C)O)[C@H](CC(C)(C)C)CO2 [Compound 1093],–,–,+++ (+++ is >60%),< 1000 nM
CNC(=O)CCCN1C(=O)c2cccc(c2)S(=O)(=O)Nc2nc(cc(-c3c(C)cccc3C)n2)OC[C@H]1CC(C)C [Compound 406],–,–,+++ (+++ is >60%),1000 to 3000 nM
Cc1cccc(C)c1-c1cc2nc(n1)NS(=O)(=O)c1cccc(c1)C(=O)N(Cc1ccc(CC(N)=O)cc1)[C@H](CC(C)(C)C)CO2 [Compound 847],+++ (+++ is >600%),< 1000 nM,–,–
"Cc1cccc(C)c1-c1cc2nc(n1)NS(=O)(=O)c1cccc(c1)C(=O)N(CCCCC(C)(C)O)[C@H](CC(C)(C)C)CO2 [Compound 107, (11R)-6-(2,6-Dimethylphenyl)-11-(2,2-dimethylpropyl)-12-(5-hydroxy-5-methyl-hexyl)-2,2-dioxo-9-oxa-2λ^6-thia-3,5,12,19-tetrazatricyclo[12.3.1.14,8]nonadeca-1(18),4(19),5,7,14,16-hexaen-13-one]",–,–,+++ (+++ is >60%),< 1000 nM
Cc1cccc(C)c1-c1cc2nc(n1)NS(=O)(=O)c1cccc(c1)C(=O)N(CCc1ccc(C(=O)N(C)C)cc1)[C@H](CC(C)(C)C)CO2 [Compound 394],–,–,+++ (+++ is >60%),< 1000 nM
Cc1cccc(C)c1-c1cc2nc(n1)NS(=O)(=O)c1cccc(c1)C(=O)N(Cc1ncc(Br)cn1)[C@H](CC(C)(C)C)CO2 [Compound 807],+++ (+++ is >600%),< 1000 nM,–,–
Cc1cccc(C)c1-c1cc2nc(n1)NS(=O)(=O)c1cccc(c1)C(=O)N(C)CC(c1ccc(CC3(C(F)(F)F)CC3)cn1)O2 (stereo not drawn) [Compound 336],–,–,+++ (+++ is >60%),< 1000 nM
CNC(=O)c1ccc(CCN2C(=O)c3cccc(c3)S(=O)(=O)Nc3nc(cc(-c4c(C)cccc4C)n3)OC[C@H]2CC(C)(C)C)cc1 [Compound 395],–,–,++ (++ is 30-60%),< 1000 nM
Cc1cccc(C)c1-c1cc2nc(n1)NS(=O)(=O)c1cc(nn1C)C(=O)N(Cc1ccccn1)[C@H](CC(C)(C)C)CO2 [Compound 934],–,–,++ (++ is 30-60%),< 1000 nM
Cc1cccc(C)c1-c1cc2nc(n1)NS(=O)(=O)c1cccc(c1)C(=O)N(Cc1ccc(C3CNCN3C)cc1)[C@H](CC(C)(C)C)CO2 (stereo partly drawn) [Compound 316],+++ (+++ is >600%),–,–,–
Cc1cccc(C)c1-c1cc2nc(n1)NS(=O)(=O)c1cccc(c1)C(=O)N(Cc1ccc(C#CC(C)(C)C#N)cc1)[C@H](CC(C)(C)C)CO2 [Compound 790],+++ (+++ is >600%),< 1000 nM,–,–
Cc1cccc(C)c1-c1cc2nc(n1)NS(=O)(=O)c1cccc(c1)C(=O)N(Cc1ccc(S(F)(F)(F)(F)F)cc1)[C@H](CC(C)(C)C)CO2 [Compound 801],+++ (+++ is >600%),< 1000 nM,–,–
Cc1cccc(C)c1-c1cc2nc(n1)NS(=O)(=O)c1cccc(n1)C(=O)N(Cc1ccncn1)[C@H](CC(C)(C)C)CO2 [Compound 1091],–,–,+++ (+++ is >60%),< 1000 nM
Cc1cccc(C)c1-c1cc2nc(n1)NS(=O)(=O)c1cccc(c1)C(=O)N(CC1CCC(C(C)(C)O)CC1)[C@H](CC(C)(C)C)CO2 (stereo partly drawn) [Compound 797],+++ (+++ is >600%),< 1000 nM,–,–
Cc1cccc(C)c1-c1cc2nc(n1)NS(=O)(=O)c1cccc(c1)C(=O)N(Cc1ccc(Oc3ncccn3)cc1)[C@H](CC(C)(C)C)CO2 [Compound 789],+++ (+++ is >600%),< 1000 nM,–,–
Cc1cccc(C)c1-c1cc2nc(n1)NS(=O)(=O)c1cccc(c1)C(=O)N(Cc1cnccn1)[C@H](CC(C)(C)C)CO2 [Compound 1100],–,–,+++ (+++ is >60%),< 1000 nM
Cc1cccc(C)c1-c1cc2nc(n1)NS(=O)(=O)c1cccc(c1)C(=O)N(Cc1ncc(F)cn1)[C@H](CC(C)(C)C)CO2 [Compound 804],+++ (+++ is >600%),< 1000 nM,–,–
CC(=O)NCCCN1C(=O)c2cccc(c2)S(=O)(=O)Nc2nc(cc(-c3c(C)cccc3C)n2)OC[C@H]1CC(C)C [Compound 404],–,–,+++ (+++ is >60%),< 1000 nM
Cc1cccc(C)c1-c1cc2nc(n1)NS(=O)(=O)c1cc(n(C)n1)C(=O)N(Cc1ccccc1)[C@H](CC(C)(C)C)CO2 [Compound 926],–,–,++ (++ is 30-60%),3000 to 30000 nM
Cc1cccc(C)c1-c1cc2nc(n1)NS(=O)(=O)c1cccc(c1)C(=O)N(Cc1ncccc1NC(=O)OC(C)C)[C@H](CC(C)(C)C)CO2 [Compound 392],+++ (+++ is >600%),< 1000 nM,–,–
Cc1cccc(C)c1-c1cc2nc(n1)NS(=O)(=O)c1cccc(c1)C(=O)N(Cc1ccc(NC(=O)OC(C)C)nc1)[C@H](CC(C)(C)C)CO2 [Compound 401],–,–,+++ (+++ is >60%),< 1000 nM
Cc1cccc(C)c1-c1cc2nc(n1)NS(=O)(=O)c1cccc(c1)C(=O)N(Cc1ccc(C(C)(C)O)cn1)[C@H](CC(C)(C)C)CO2 [Compound 1082],–,–,+++ (+++ is >60%),< 1000 nM
"Cc1cccc(C)c1-c1cc2nc(n1)NS(=O)(=O)c1cccc(c1)C(=O)N(CCc1ccc(C(C)(C)O)cc1)[C@H](CC(C)(C)C)CO2 [Compound 108, (11R)-6-(2,6-Dimethylphenyl)-11-(2,2-dimethylpropyl)-12-[2-[4-(1-hydroxy-1-methyl-ethyl)phenyl]ethyl]-2,2-dioxo-9-oxa-2λ^6-thia-3,5,12,19-tetrazatricyclo[12.3.1.14,8]nonadeca-1(18),4(19),5,7,14,16-hexaen-13-one]",+++ (+++ is >600%),< 1000 nM,–,–
Cc1cccc(C)c1-c1cc2nc(n1)NS(=O)(=O)c1cccc(n1)C(=O)N(Cc1ccccc1)[C@H](CC(C)(C)C)CO2 [Compound 1085],–,–,+++ (+++ is >60%),< 1000 nM
Cc1cccc(C)c1-c1cc2nc(n1)NS(=O)(=O)c1cccc(c1)C(=O)N(Cc1ncc(Cl)cn1)[C@H](CC(C)(C)C)CO2 [Compound 805],+++ (+++ is >600%),< 1000 nM,–,–
